Data as given in patent US12258327B2, “5-membered heteroaryl-containing aminopyridine compounds as EGFR inhibitors” (YUHAN CORPORATION, priority 2021, dated 2025).
Like-named read-outs stand apart in the source and are kept apart here.

Tests used:
EGFR del19/C797S = EGFR del19/C797S (Homo sapiens, UniProt P00533, C797S/DEL746-750); assay: Biochemical EGFR kinase assay (Lance Ultra TR-FRET), double mutant del19/C797S
How it was run: (§1)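 Kinase activity is measured by TR-FRET phosphopeptide detection. Compounds span 0.003 μM to 10 μM; the 1 h reaction at room temperature is quenched with EDTA, then labelled antibody (2 nM) is incubated 60 min before reading.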

EGFR wildtype (WT) = EGFR wildtype (WT) (Homo sapiens, UniProt P00533); assay: Biochemical EGFR kinase assay (Lance Ultra TR-FRET), wildtype
Sequence of EGFR wildtype (WT) (P00533 25-1210): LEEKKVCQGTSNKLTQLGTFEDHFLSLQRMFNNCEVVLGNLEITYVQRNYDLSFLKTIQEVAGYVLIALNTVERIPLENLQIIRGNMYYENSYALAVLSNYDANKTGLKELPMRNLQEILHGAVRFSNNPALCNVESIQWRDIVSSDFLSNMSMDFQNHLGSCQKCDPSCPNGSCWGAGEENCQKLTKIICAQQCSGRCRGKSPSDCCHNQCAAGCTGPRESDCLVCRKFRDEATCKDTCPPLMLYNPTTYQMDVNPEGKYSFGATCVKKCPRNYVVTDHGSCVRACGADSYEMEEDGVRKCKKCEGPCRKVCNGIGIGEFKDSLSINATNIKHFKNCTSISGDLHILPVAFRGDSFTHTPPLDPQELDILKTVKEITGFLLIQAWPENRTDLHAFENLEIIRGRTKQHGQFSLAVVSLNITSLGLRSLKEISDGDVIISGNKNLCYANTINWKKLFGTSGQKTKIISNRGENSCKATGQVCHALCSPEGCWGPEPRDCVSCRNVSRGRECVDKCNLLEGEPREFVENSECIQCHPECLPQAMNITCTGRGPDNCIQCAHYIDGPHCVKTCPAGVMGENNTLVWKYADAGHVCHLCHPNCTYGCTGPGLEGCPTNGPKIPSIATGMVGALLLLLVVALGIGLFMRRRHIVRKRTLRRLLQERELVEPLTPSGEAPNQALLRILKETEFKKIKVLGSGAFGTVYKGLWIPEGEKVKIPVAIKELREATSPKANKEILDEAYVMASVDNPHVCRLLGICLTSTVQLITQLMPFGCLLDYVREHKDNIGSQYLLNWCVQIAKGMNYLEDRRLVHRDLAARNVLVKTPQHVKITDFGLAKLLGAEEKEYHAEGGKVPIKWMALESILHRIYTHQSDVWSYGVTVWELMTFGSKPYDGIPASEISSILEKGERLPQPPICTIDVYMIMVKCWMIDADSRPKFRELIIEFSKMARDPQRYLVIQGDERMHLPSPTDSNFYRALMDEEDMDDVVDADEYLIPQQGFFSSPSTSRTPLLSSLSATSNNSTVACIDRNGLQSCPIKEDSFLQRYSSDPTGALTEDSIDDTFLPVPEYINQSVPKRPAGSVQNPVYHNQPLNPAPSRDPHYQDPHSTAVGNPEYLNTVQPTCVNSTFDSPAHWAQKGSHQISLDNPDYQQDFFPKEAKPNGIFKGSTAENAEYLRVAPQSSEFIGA
How it was run: as §1

EGFR L858R/C797S = EGFR L858R/C797S (Homo sapiens, UniProt P00533, C797S/L858R); assay: Biochemical EGFR kinase assay (Lance Ultra TR-FRET), double mutant L858R/C797S
How it was run: as §1

EGFR del19/T790M/C797S = EGFR del19/T790M/C797S (Homo sapiens, UniProt P00533, C797S/DEL746-750/T790M); assay: Biochemical EGFR kinase assay (Lance Ultra TR-FRET), triple mutant del19/T790M/C797S
Sequence of EGFR del19/T790M/C797S (P00533 with tags, fused parts or gaps DEL746-750/T790M/C797S): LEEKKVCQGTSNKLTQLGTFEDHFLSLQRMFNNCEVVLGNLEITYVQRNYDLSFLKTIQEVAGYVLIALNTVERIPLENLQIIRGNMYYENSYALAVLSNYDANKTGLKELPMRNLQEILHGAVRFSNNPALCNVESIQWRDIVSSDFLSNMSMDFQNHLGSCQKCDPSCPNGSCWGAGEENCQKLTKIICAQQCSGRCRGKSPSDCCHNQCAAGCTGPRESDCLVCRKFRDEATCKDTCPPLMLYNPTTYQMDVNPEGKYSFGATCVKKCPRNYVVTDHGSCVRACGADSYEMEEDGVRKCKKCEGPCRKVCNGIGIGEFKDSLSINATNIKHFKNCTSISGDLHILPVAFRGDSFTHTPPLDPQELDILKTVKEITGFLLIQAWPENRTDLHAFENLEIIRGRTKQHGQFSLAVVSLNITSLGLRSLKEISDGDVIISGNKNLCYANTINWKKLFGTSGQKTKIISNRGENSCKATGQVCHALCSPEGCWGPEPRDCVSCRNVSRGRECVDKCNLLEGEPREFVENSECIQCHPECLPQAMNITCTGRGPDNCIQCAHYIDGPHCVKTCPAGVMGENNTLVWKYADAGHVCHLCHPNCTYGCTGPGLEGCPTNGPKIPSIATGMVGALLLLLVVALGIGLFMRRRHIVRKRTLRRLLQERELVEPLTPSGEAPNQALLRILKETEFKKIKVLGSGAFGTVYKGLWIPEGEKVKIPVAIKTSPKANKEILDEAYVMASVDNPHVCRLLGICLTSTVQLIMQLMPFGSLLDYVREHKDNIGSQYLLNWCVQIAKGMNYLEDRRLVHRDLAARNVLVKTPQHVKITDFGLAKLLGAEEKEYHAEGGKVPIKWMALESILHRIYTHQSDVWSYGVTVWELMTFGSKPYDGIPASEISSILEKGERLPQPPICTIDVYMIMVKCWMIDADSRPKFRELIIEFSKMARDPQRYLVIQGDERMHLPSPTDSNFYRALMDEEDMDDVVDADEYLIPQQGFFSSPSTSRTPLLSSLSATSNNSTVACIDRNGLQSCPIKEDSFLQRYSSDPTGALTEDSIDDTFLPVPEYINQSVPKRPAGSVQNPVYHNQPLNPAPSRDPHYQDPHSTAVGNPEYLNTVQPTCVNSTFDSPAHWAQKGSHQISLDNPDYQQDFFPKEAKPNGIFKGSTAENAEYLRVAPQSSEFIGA
How it was run: as §1

EGFR L858R/T790M/C797S = EGFR L858R/T790M/C797S (Homo sapiens, UniProt P00533, C797S/L858R/T790M); assay: Biochemical EGFR kinase assay (Lance Ultra TR-FRET), triple mutant L858R/T790M/C797S
Sequence of EGFR L858R/T790M/C797S (P00533 25-1210 T790M/C797S/L858R): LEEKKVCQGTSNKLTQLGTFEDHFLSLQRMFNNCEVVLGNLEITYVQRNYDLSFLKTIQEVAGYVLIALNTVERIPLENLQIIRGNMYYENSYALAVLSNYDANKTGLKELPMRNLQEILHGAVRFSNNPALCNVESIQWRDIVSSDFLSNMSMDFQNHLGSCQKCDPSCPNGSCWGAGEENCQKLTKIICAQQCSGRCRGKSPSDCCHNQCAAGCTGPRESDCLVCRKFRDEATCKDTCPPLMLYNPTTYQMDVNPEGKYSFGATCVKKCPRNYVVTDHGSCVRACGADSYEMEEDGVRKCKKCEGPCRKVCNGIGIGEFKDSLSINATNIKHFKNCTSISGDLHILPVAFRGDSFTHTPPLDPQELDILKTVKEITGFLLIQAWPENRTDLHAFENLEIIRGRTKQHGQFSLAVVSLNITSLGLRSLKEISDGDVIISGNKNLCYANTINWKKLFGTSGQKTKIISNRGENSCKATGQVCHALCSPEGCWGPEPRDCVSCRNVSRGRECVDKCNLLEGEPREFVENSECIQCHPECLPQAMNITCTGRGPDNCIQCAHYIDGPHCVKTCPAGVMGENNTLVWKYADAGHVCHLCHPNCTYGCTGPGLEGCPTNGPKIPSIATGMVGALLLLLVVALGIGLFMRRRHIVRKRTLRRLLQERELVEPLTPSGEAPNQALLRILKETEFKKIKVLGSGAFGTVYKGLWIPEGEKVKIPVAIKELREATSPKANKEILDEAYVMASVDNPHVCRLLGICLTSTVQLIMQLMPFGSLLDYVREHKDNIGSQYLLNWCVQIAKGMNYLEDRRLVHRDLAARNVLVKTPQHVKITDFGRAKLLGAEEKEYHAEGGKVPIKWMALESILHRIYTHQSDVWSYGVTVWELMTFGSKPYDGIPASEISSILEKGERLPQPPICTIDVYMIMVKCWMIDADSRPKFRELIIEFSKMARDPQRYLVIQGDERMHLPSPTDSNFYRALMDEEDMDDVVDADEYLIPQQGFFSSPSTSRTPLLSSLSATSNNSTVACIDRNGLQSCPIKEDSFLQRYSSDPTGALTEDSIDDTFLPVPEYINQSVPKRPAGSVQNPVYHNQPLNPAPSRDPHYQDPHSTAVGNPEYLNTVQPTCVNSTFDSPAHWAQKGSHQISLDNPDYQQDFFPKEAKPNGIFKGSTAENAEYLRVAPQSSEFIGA
How it was run: as §1

[1] = Km ATP, read-out: IC50 del19/C797S (nM) Km ATP
[2] = Km ATP, read-out: IC50 WT (nM) Km ATP
[3] = Km ATP, read-out: IC50 L858R/C797S (nM) Km ATP
[4] = Km ATP, read-out: IC50 del19/T790M/C797S (nM) Km ATP
[5] = Km ATP, read-out: IC50 L858R/T790M/C797S (nM) Km ATP
[6] = IC50 del19/C797S (nM) 100 μM ATP, 100 μM ATP
[7] = IC50 WT (nM) 100 μM ATP, 100 μM ATP
[8] = IC50 L858R/C797S (nM) 100 μM ATP, 100 μM ATP
[9] = IC50 del19/T790M/C797S (nM) 100 μM ATP, 100 μM ATP
[10] = IC50 L858R/T790M/C797S (nM) 100 μM ATP, 100 μM ATP

Sequence of EGFR del19/C797S (P00533 with tags, fused parts or gaps DEL746-750/C797S): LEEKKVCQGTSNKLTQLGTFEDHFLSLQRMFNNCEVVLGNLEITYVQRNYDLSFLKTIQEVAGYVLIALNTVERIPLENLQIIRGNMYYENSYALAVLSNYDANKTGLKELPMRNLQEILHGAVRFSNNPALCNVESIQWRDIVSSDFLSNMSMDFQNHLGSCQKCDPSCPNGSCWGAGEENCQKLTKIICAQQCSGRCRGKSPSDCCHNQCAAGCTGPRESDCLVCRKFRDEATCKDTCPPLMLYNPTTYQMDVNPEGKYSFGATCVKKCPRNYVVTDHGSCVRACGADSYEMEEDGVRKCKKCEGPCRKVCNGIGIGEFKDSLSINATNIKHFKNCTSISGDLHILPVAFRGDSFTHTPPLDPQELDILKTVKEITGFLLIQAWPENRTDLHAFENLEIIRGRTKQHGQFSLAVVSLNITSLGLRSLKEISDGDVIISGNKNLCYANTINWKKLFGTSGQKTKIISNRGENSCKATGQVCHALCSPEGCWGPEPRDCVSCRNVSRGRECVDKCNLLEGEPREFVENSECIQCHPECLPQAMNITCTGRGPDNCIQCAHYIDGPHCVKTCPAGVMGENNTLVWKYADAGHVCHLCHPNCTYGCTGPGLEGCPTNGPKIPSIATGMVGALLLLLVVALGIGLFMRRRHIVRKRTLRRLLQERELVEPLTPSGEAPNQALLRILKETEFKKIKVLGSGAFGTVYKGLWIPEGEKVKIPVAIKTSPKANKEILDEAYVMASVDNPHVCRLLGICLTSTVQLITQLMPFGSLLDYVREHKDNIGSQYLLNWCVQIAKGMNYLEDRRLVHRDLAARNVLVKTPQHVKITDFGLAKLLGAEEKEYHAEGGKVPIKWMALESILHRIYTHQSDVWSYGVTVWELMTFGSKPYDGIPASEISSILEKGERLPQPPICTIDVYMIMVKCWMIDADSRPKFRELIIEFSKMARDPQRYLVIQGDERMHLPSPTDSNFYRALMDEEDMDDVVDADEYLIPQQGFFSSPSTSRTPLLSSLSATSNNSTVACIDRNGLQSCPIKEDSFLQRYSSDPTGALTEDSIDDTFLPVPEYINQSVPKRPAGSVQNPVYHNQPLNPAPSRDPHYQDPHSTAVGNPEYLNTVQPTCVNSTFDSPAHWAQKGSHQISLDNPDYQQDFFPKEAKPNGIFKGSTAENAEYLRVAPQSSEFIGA

Row | SMILES | IC50 (EGFR del19/C797S; [1]) [nM] | IC50 (EGFR wildtype (WT); [2]) [nM] | IC50 (EGFR L858R/C797S; [3]) [nM] | IC50 (EGFR del19/T790M/C797S; [4]) [nM] | IC50 (EGFR L858R/T790M/C797S; [5]) [nM] | IC50 (EGFR del19/C797S; [6]) [nM] | IC50 (EGFR wildtype (WT); [7]) [nM] | IC50 (EGFR L858R/C797S; [8]) [nM] | IC50 (EGFR del19/T790M/C797S; [9]) [nM] | IC50 (EGFR L858R/T790M/C797S; [10]) [nM] | further results
1 | CC(Nc1cc(Nc2ccnc(-c3cnn(S(=O)(=O)C4CC4)c3)n2)ncc1-c1ccn(C(F)F)n1)C(F)F (stereo not drawn) [Example 213, N^2-(2-(1-(Cyclopropylsulfonyl)-1H-pyrazol-4-yl)pyrimidin-4-yl)-5-(1-(difluoromethyl)-1H-pyrazol-3-yl)-N^4-(1,1-difluoropropan-2-yl)pyridine-2,4-diamine] | 370 | 488 | 123 | 3.4 | 2.7 |  |  |  |  |  | 
2 | CCC(C)Nc1cc(Nc2ccnc(-c3cnn(S(=O)(=O)C4CC4)c3)n2)ncc1-c1ccn(CC(F)F)n1 (stereo not drawn) [Example 250, N^4-(sec-Butyl)-N^2-(2-(1-(cyclopropylsulfonyl)-1H-pyrazol-4-yl)pyrimidin-4-yl)-5-(1-(2,2-difluoroethyl)-1H-pyrazol-3-yl)pyridine-2,4-diamine] | 63.8 | 56.1 | 4.4 | 0.9 | 0.9 |  |  |  |  |  | 
3 | O=S(=O)(C1CC1)n1cc(-c2nccc(Nc3cc(NC4CC(O)C4)c(-c4ccn(C(F)F)n4)cn3)n2)cn1 (stereo not drawn) [Example 40, 3-((2-((2-(1-(Cyclopropylsulfonyl)-1H-pyrazol-4-yl)pyrimidin-4-yl)amino)-5-(1-(difluoromethyl)-1H-pyrazol-3-yl)pyridin-4-yl)amino)cyclobutan-1-ol] | 2.3 | 36.3 | 4.5 | 0.5 | 0.3 | 7.6 | > 10000 | 174 | 0.5 | 2 | 
4 | O=S(=O)(C1CC1)n1cc(-c2nccc(Nc3cc(N[C@H]4CC[C@@H](NCCF)CC4)c(-c4csc(C(F)(F)F)n4)cn3)n2)cn1 [Example 50, N^2-(2-(1-(Cyclopropylsulfonyl)-1H-pyrazol-4-yl)pyrimidin-4-yl)-N^4-((1s,4s)-4-((2-fluoroethyl)amino)cyclohexyl)-5-(2-(trifluoromethyl)thiazol-4-yl)pyridine-2,4-diamine] |  |  |  |  |  |  |  |  |  |  | IC50 (EGFR del19/C797S; read-out: IC50 del19/C797S (nM) 100 μM ATP, 100 μM ATP): 25.6 nM; IC50 (EGFR wildtype (WT); read-out: IC50 WT (nM) 100 μM ATP, 100 μM ATP): > 10000 nM; IC50 (EGFR L858R/C797S; read-out: IC50 L858R/C797S (nM) 100 μM ATP, 100 μM ATP): 42.2 nM; IC50 (EGFR del19/T790M/C797S; read-out: IC50 del19/T790M/C797S (nM) 100 μM ATP, 100 μM ATP): 1.1 nM; IC50 (EGFR L858R/T790M/C797S; read-out: IC50 L858R/T790M/C797S (nM) 100 μM ATP, 100 μM ATP): 1.6 nM
5 | C[C@]1(O)CC[C@@H](Nc2nc(Nc3ccnc(-c4cnn(S(=O)(=O)C5CC5)c4)c3)ncc2-c2ccn(CC(F)(F)F)n2)CC1 [Example 360, (1s,4s)-4-((2-((2-(1-(Cyclopropylsulfonyl)-1H-pyrazol-4-yl)pyridin-4-yl)amino)-5-(1-(2,2,2-trifluoroethyl)-1H-pyrazol-3-yl)pyrimidin-4-yl)amino)-1-methylcyclohexan-1-ol] |  |  |  |  |  |  |  |  |  |  | IC50 (EGFR del19/C797S; Km ATP, read-out: IC50 del19/C797S, Km ATP): 9.5 nM; IC50 (EGFR wildtype (WT); Km ATP, read-out: IC50 WT, Km ATP): 140 nM; IC50 (EGFR L858R/C797S; Km ATP, read-out: IC50 L858R/C797S, Km ATP): 16.7 nM; IC50 (EGFR del19/T790M/C797S; Km ATP, read-out: IC50 del19/T790M/C797S, Km ATP): 0.5 nM; IC50 (EGFR L858R/T790M/C797S; Km ATP, read-out: IC50 L858R/T790M/C797S, Km ATP): 0.9 nM
6 | CN[C@H]1CC[C@@H](Nc2cc(Nc3ccnc(-c4cnn(S(=O)(=O)C5CC5)c4)n3)ncc2-c2ccco2)CC1 [Example 87, N^2-(2-(1-(Cyclopropylsulfonyl)-1H-pyrazol-4-yl)pyrimidin-4-yl)-5-(furan-2-yl)-N^4-((1s,4s)-4-(methylamino)cyclohexyl)pyridine-2,4-diamine] |  |  |  |  |  | 6.9 | > 10000 | 31.4 | 0.2 | 0.7 | 
7 | CC(C)(CO)Cn1cc(-c2nccc(Nc3cc(N[C@H]4CC[C@@](C)(O)CC4)c(-c4ccn(C(F)F)n4)cn3)n2)cn1 [Example 173, (1s,4s)-4-((5-(1-(Difluoromethyl)-1H-pyrazol-3-yl)-2-((2-(1-(3-hydroxy-2,2-dimethylpropyl)-1H-pyrazol-4-yl)pyrimidin-4-yl)amino)pyridin-4-yl)amino)-1-methylcyclohexan-1-ol] | 333 | 16.7 | 107 | 3.9 | 0.9 |  |  |  |  |  | 
8 | CC(C)(CO)CNc1cc(Nc2ccnc(-c3cnn(S(=O)(=O)C4CC4)c3)n2)ncc1-c1csc(C(C)(C)O)n1 [Example 90, 3-((2-((2-(1-(Cyclopropylsulfonyl)-1H-pyrazol-4-yl)pyrimidin-4-yl)amino)-5-(2-(2-hydroxypropan-2-yl)thiazol-4-yl)pyridin-4-yl)amino)-2,2-dimethylpropan-1-ol] |  |  |  |  |  | 367 | > 10000 | 1490 | 2.6 | 7.1 | 
